Source: US8513271B2, “Pyrimidine compounds as delta opioid receptor modulators” (Janssen Pharmaceutica, NV, priority 2009, dated 2013)
Where two headings read alike, the source gives them in different places.

What was measured:
delta opioid receptor [1] = biological target: T1, delta opioid receptor (Rattus norvegicus, UniProt P33533); assay: Rat brain delta opioid receptor binding assay; conditions: rat forebrain
T1 construct: the forebrains were homogenized in Tris buffer in a Teflon®-glass homogenizer; from tissue; host or cells: forebrain of male Wistar rats, particulate (membrane) preparation

mu opioid receptor = biological target: T2, mu opioid receptor (Rattus norvegicus, UniProt P33535); assay: Rat brain mu opioid receptor binding assay; conditions: rat forebrain, [3H]DAMGO ligand
T2 construct: the forebrains were homogenized in Tris buffer in a Teflon®-glass homogenizer; from tissue; host or cells: forebrain of male Wistar rats, particulate (membrane) preparation

delta opioid receptor [2] = biological target: T3, delta opioid receptor (Mus musculus, UniProt P32300); assay: [35S]GTPγS binding assay in NG108-15 cell membranes (delta opioid functional assay), 200 nM screen; type: biochemical
T3 construct: NG108-15 cell membranes were purchased from Applied Cell Sciences (Rockville, Md.); host or cells: NG108-15 cell membranes

[3] = δ-binding (Naltrindole ligand) Ki, [3H]naltrindole ligand
[4] = [3H]naltrindole ligand, read-out: δ-binding (Naltrindole ligand) Ki
[5] = [3H]DPDPE ligand, read-out: δ-binding (DPDPE ligand) Ki

T1 sequence (P33533 whole entry): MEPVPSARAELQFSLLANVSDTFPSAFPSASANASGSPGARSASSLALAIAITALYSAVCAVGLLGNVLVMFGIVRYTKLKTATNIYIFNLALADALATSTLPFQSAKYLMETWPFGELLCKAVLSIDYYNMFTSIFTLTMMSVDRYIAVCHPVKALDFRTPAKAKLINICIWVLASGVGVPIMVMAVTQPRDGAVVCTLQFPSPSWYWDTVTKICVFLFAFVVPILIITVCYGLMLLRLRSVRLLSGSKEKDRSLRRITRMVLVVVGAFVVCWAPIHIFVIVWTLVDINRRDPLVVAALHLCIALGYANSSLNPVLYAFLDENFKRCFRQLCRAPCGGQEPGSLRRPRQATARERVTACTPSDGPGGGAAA
T2 sequence (P33535 whole entry): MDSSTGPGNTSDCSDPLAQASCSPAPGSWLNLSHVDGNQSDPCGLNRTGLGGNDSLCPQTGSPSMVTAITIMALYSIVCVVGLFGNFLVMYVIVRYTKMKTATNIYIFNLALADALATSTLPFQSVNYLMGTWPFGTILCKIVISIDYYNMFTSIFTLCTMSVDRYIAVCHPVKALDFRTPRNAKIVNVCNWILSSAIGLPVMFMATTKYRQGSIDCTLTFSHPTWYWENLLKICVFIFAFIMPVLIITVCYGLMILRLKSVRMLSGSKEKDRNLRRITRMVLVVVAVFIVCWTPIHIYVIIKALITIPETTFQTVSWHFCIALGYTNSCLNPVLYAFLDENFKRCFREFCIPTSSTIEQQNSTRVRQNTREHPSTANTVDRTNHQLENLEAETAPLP
T3 sequence (P32300 whole entry): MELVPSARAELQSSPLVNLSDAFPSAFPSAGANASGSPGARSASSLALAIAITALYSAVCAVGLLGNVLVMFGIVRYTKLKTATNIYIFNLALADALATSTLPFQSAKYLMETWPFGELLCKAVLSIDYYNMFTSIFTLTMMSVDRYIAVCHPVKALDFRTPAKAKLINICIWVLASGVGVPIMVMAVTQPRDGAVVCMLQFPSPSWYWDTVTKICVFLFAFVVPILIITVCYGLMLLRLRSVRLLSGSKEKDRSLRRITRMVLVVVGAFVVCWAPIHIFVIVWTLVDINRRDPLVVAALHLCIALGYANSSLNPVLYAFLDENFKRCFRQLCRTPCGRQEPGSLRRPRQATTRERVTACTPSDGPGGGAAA

| Compound | Ki (delta opioid receptor [1]; [3]) [nM] | Ki (mu opioid receptor; read-out: μ-binding Ki) [nM] | also measured |
| --- | --- | --- | --- |
| COc1ccc(Oc2nc(-c3nccs3)ncc2NC[C@@H]2CCCN2)cc1 [Cpd 48] | 24 | 862 | – |
| COc1ccc(Oc2nc(-c3ccc(O)nc3)ncc2NC[C@@H]2CCCN2)cc1 [Cpd 74] | 26 | 1060 | EC50 (delta opioid receptor [2]; NG108-15 cell membranes, averages if tested more than once, read-out: GTPγS δ-opioid receptor EC50): 856 nM; inhibition at 10 µM (delta opioid receptor [2]; read-out: GTPγS δ-opioid receptor % Inh @10 μM): 2.37% |
| COc1ccc(Oc2nc(-c3cccc4nc(C)ccc34)ncc2NC[C@@H]2CCCN2)cc1 [Cpd 18] | – | 2240 | Ki (delta opioid receptor [1]; [4]): 172 nM |
| COc1ccc(Oc2nc(-c3ccc(OC)cc3)ncc2NC[C@@H]2CCCN2)cc1 [Cpd 1] | – | 3230 | Ki (delta opioid receptor [1]; [5]): 363 nM |
| COc1ccc(-c2ncc(NC[C@@H]3CCCN3)c(Oc3ccc(F)cc3)n2)cn1 [Cpd 37] | 10 | > 10000 | – |
| COc1ccc(Oc2nc(-c3cc4ccccc4s3)ncc2NC[C@@H]2CCCN2)cc1 [Cpd 49] | – | 3560 | Ki (delta opioid receptor [1]; [4]): 103 nM |
| COc1ccc(Oc2nc(-c3ccc(O)cc3)ncc2NC[C@@H]2CCCN2)cc1 [Cpd 33] | 29 | – | Ki (mu opioid receptor; μ-binding Ki): 29 nM |
| COc1ccc(Oc2nc(-c3cccc(NC(C)=O)c3)ncc2NC[C@@H]2CCCN2)cc1 [Cpd 42] | 16 | 1230 | – |
| COc1ccc(Oc2nc(-c3cc(F)cc(F)c3)ncc2NC[C@@H]2CCCN2)cc1 [Cpd 55] | 21 | 2050 | – |
| Nc1ccc(Oc2nc(-c3cccnc3)ncc2NC[C@@H]2CCCN2)cc1 [Cpd 46] | 27 | 3550 | – |
| FC(F)(F)Oc1ccc(Oc2nc(-c3cccnc3)ncc2NC[C@@H]2CCCN2)cc1 [Cpd 11] | 5 | 3080 | – |
| COc1ccc(Oc2nc(-c3cccc(OC(F)(F)F)c3)ncc2NC[C@@H]2CCCN2)cc1 [Cpd 51] | 22 | 1030 | – |
| COc1ccc(Oc2nc(-c3ccc4nonc4c3)ncc2NC[C@@H]2CCCN2)cc1 [Cpd 78] | 75 | 1880 | – |
| COc1ccc(Oc2nc(-c3ccc(NC(C)=O)cc3)ncc2NC[C@@H]2CCCN2)cc1 [Cpd 43] | 4 | 523 | – |
| COc1ccc(Oc2nc(-c3cncnc3)ncc2NC[C@@H]2CC(F)(F)CN2)cc1 [Cpd 79] | 95 | > 10000 | – |
| COc1ccc(Oc2nc(-c3cnc(N(C)C)nc3)ncc2NC[C@@H]2CCCN2)cc1 [Cpd 82] | 28 | 1050 | – |

| Compound | Ki (delta opioid receptor [1]; [3]) [nM] | Ki (mu opioid receptor; read-out: μ-binding Ki) [nM] | also measured |
| --- | --- | --- | --- |
| COc1ccc(Oc2nc(-c3cccc4ncccc34)ncc2NC[C@@H]2CCCN2)cc1 [Cpd 16] | 14 | 1320 | – |
| Fc1ccc(Oc2nc(-c3cccnc3)ncc2NC[C@@H]2CCCN2)cc1 [Cpd 36] | 3 | 4770 | – |
| COc1ccccc1Oc1nc(-c2cccnc2)ncc1NC[C@@H]1CCCN1 [Cpd 40] | 93 | 7640 | – |
| COc1ccc(Oc2nc(-c3cnc(OC)nc3)ncc2NC[C@@H]2CCCN2)cc1 [Cpd 53] | 0.2 | 591 | – |
| COc1ccc(Oc2nc(-c3cccc(F)c3)ncc2NC[C@@H]2CCCN2)cc1 [Cpd 38] | 1 | 4910 | – |
| COc1cccc(Oc2nc(-c3cncc(C#N)c3)ncc2NC[C@@H]2CCCN2)c1 [Cpd 98] | 3 | 102 | – |
| COc1ccc(Oc2nc(-c3ccsc3)ncc2NC[C@@H]2CCCN2)cc1 [Cpd 9] | – | 2970 | Ki (delta opioid receptor [1]; [4]): 1 nM |
| COc1ccc(Oc2nc(-c3cccc(OC)c3)ncc2NC[C@@H]2CCCN2)cc1 [Cpd 3] | – | 2340 | Ki (delta opioid receptor [1]; [5]): 142 nM |
| CCN(CC)C(=O)c1cccc(-c2ncc(NC[C@@H]3CCCN3)c(Oc3ccc(OC)cc3)n2)c1 [Cpd 31] | 31 | 837 | – |
| COc1ccc(Oc2nc(-c3cccc(C(N)=O)c3)ncc2NC[C@@H]2CCCN2)cc1 [Cpd 30] | 3 | 1090 | – |
| COc1ccc(Oc2nc(-c3cccc([N+](=O)[O-])c3)ncc2NC[C@@H]2CCCN2)cc1 [Cpd 29] | 86 | 2660 | – |
| COc1ccc(Oc2nc(-c3cccc(O)c3)ncc2NC[C@@H]2CCCN2)cc1 [Cpd 15] | 0.1 | 416 | – |
| c1ccc(Oc2nc(-c3cccnc3)ncc2NC[C@@H]2CCCN2)cc1 [Cpd 14] | 1 | 1730 | – |
| COc1ccc(Oc2nc(-c3cc(F)cc(OC)c3)ncc2NC[C@@H]2CCCN2)cc1 [Cpd 70] | 47 | 2250 | – |
| COc1ccc(Oc2nc(-c3ccccc3OC)ncc2NC[C@@H]2CCCN2)cc1 [Cpd 4] | – | > 10000 | Ki (delta opioid receptor [1]; [5]): 2220 nM |
| COc1ccc(Oc2nc(-c3ccc4sc5ccccc5c4c3)ncc2NC[C@@H]2CCCN2)cc1 [Cpd 21] | – | 2390 | Ki (delta opioid receptor [1]; [4]): 201 nM |
